From patent publication US20220380430A1, “Non-Transgenic Functional Rescue of Neuropeptides” (Worcester Polytechnic Institute, priority 2021, published 2022)
No end group written: not given here.

Legend:
ins-6 lof worms = assay: NaCl chemotaxis assay after rescue-by-feeding; format: in vivo, C. elegans; conditions: ins-6 mutants; 750 mM NaCl
Description: All animals were maintained on bacterial lawns of OP50 E. coli, at 20° C., on NGM agar plates until the start of experiments. Mutant or control animals were transferred onto lawns of DH5α E. coli expressing either scramble peptide or the rescue peptide-of-interest on NGM plates containing […] AMP and 1 mM IPTG. Animals were reared on the peptide-expressing lawns for at least 48 hours at 20° C. before assaying for rescue of mutant phenotype at the appropriate developmental stage.
A salt chemotaxis assay was performed as previously described in Leinwand, S. G. & Chalasani, S. H. Nature neuroscience 16, 1461-1467 (2013); Bargmann, C. I. & Horvitz, H. R. Neuron 7, 729-742 (1991) to test the functionality of ins-6 after rescue-by-feeding. Wild-type (N2) and ins-6 worms were fed either scramble or INS-6 peptide passing 4-6 L4 larval onto an NGM plate containing […] AMP and 1 mM IPTG with 75 μL of peptide OD600=1.0. These worms were grown at 20° C. for about 4 days until the progeny of the initial L4 worms were young adults.
The day prior to testing, a thin, 10 mL layer of agar was added to 10 cm petri dishes to generate a 10 cm Chemotaxis Plates (5 mM KPO4 (pH 6.0), 1 μM MgSO4, 1 μM CaCl2), 20 g/L agar, and 8 g/L Difco Nutrient Broth). To prepare the “high salt” plates, 750 mM NaCl was added prior to plate pouring. The high salt plate were stored at 4° C. for up to one month, while the Chemotaxis Plates were made one day prior to testing. To create the high and low salt plugs, the back end of a Pasteur pipette was used to punch a 5 mm plug out of each plate. These 2 plugs were placed on opposite edges of the plate. A 10 mm radius was be drawn around the location of the plugs (FIG. 1). Plates were stored, lightly covered, overnight at room temperature (˜20° C., <40% humidity). […]
Young adult hermaphrodites are tested in the Chemotaxis Assay with no more than three replicates per day, over a minimum of three days, with 100-200 worms/assay plate. The […] Chemotaxis Index (CI) was calculated as follows: […]

flp-3 lof males = assay: Single worm attraction assay (SWAA) to ascr #8 after FLP-3 peptide rescue-by-feeding; format: in vivo, C. elegans; conditions: flp-3 lof males raised on peptide; in words
Description: The outer forty wells of a 48-well suspension culture plate (Olympus Plastics, Cat #: 25-103) were seeded with 200 μL of standard NGM agar. To prepare the plates for the assay, they were acclimated to room temperature, at which point each well was seeded with 65 μL of OP50 E. coli. The assay plates were then transferred to a 37° C. incubator with the lid tilted for 4 h to allow the bacterial culture to dry on the agar. Once the bacterial culture dried, the lid was replaced the plate was stored at 20° C. until used in the assay. Fifty to sixty L4 worms were segregated by sex and stored at 20° C. for 5 h to overnight to be assayed as young adults. 0.8 μL of either vehicle control or ascaroside #8 was placed in the center of the well corresponding to that condition within the quadrant being tested, following a random block design (FIG. 11A). A single worm was placed in each of the 10 wells to be assayed, and the plate was transferred to a light source and camera and recorded for 15 m. This process was repeated for all four quadrants. Each strain and sex were assayed over five plates assayed on at least three different days. Raw dwell time values were calculated by subtracting the time a worm exited the cue (center of the well in spatial controls), from the time it entered, as in the SRA. This was determined per visit, and the average dwell time was calculated for each animal in the quadrant. Averages of the four-quadrant means were determined per plate, and a minimum of five plates were assayed per strain/condition. The mean raw dwell time across five plates was calculated and used for statistical analyses and graphical display. The average dwell time in the ascaroside was divided by the average dwell time within the vehicle control per plate to generate a fold-change. To transform the data, the log of this fold-change was taken, and the average log(fold-change) was used for statistical analyses and graphical display. […]

In the case of “NSKLHRGGGRSRTSGSTGSMASHARGSPGLQ-NH2 [SCRAMBLE, scramble control peptide expressed in E. coli DH5α, negative control, reference compound]”, the “Chemotaxis Index” value (ins-6 lof worms) is reported as “less than 0.4” and the “rescue of attraction to ascr #8 (dwell time, log(fold-change))” value (flp-3 lof males) is reported as “does not affect behavior”.
